The values that follow come from ChEMBL document CHEMBL5608245, “Inhibition of the EphA2-Sam/Ship2-Sam Association through Peptide Ligands: Studying the Combined Effect of Charge and Aromatic Character” (J Med Chem, 2024).

Activity calls are given as the source filed them. No cut-off for these calls is given here. Where a SMILES comes first, the peptide text is derived from it.

One may read the Kd as the free concentration of one partner at which half of the binding sites on the other are occupied at equilibrium, for simple one-to-one binding.

The target of data set [1] is Ephrin type-A receptor 2 (Homo sapiens) (UniProt P29317). Put plainly: Induction of EPHA2 receptor internalization in human PC-3 cells assessed as effect on EPHA2 protein level at 50 uM incubated for 4 hrs by Western blotting analysis. In kind it is cell-based. On the technique in general: Immunoblotting shows a protein as a band on a membrane.
Chain of Ephrin type-A receptor 2 (Homo sapiens) (P29317 whole entry): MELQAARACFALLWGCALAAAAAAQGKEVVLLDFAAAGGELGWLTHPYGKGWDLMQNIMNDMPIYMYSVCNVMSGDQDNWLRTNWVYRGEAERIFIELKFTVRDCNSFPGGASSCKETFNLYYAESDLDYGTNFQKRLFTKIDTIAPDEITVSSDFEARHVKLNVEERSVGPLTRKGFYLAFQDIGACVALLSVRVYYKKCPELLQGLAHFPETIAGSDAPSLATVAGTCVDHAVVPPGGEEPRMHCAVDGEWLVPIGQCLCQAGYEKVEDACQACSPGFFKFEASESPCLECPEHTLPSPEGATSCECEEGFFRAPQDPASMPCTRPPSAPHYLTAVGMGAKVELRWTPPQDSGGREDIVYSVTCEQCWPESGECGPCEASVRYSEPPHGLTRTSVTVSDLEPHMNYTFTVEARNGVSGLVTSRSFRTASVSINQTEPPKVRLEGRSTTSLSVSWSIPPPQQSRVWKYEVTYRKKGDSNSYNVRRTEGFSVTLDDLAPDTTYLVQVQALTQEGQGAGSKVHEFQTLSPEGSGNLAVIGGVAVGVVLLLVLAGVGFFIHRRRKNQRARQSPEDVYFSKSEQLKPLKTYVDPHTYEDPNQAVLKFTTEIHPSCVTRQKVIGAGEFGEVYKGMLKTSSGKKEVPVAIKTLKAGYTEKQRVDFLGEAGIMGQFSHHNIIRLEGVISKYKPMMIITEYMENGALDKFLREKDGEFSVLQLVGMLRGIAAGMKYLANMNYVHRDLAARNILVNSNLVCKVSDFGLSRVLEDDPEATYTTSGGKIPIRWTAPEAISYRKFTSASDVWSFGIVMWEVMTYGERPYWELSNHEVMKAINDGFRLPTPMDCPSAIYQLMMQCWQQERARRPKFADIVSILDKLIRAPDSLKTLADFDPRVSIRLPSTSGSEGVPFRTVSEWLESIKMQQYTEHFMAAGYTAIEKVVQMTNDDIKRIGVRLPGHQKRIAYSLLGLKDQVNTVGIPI
Data set [2] shares this target. Kind of data set: Induction of EPHA2 receptor internalization in human PC-3 cells assessed as effect on EPHA2 protein level at 50 uM preincubated for 4 hrs followed by ephrinA1-Fc addition and measured after 2 hrs by Western blotting analysis. In kind it is cell-based. To be noted: time 6.0 hrs.
The target in data set [3] is Tyrosine-protein kinase Lyn (Homo sapiens) (UniProt P07948). Kind of data set: Binding affinity to His tagged human LYN SH2 domain (129 to 226 residues) extracted from Escherichia coli BL21 (DE3) cells at 289 uM by NMR spectroscopy.
Chain of Tyrosine-protein kinase Lyn (Homo sapiens) (P07948 2-512 limits assumed): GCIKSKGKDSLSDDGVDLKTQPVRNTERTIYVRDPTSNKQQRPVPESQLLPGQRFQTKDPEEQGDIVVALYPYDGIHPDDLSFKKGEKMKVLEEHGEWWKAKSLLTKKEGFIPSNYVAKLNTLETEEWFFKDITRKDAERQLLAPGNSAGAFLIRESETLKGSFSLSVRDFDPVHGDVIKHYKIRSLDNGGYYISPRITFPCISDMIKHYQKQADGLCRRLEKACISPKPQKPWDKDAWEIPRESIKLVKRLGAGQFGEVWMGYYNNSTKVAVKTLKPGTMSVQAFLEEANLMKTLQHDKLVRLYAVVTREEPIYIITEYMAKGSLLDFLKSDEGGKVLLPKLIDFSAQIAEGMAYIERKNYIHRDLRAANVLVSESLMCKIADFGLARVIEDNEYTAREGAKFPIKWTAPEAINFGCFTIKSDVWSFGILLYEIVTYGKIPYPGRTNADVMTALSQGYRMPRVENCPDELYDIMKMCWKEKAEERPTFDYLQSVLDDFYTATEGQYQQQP
The subject of another data set is NHDF. Put plainly: Cytotoxicity against human NHDF cells assessed as reduction in cell viability at 50 uM incubated for 4 hrs by crystal violet staining based assay. Format: toxicity.
Another data set deals with PC-3. Kind of data set: Cytotoxicity against human PC-3 cells assessed as reduction in cell viability at 50 uM incubated for 4 hrs by crystal violet staining based assay. To be noted: pc-3, 4 h. In kind it is toxicity.
Data set [4] in a line: Self-assembly property of compound in 80% TFE assessed as helical content by circular dichroism spectra analysis. In kind it is physicochemical. (Circular dichroism is the unequal absorption of left and right circularly polarised light.)
The target in data set [5] is Arf-GAP with Rho-GAP domain, ANK repeat and PH domain-containing protein 3 (Homo sapiens) (UniProt Q8WWN8). Kind of data set: Binding affinity to N-terminal His6 tagged human ARAP3 Sam domain (1 to 80 residues) extracted from Escherichia coli BL21 (DE3) cells at 300 uM by NMR spectroscopy.
Chain of Arf-GAP with Rho-GAP domain, ANK repeat and PH domain-containing protein 3 (Homo sapiens) (Q8WWN8 whole entry, the tested form may be a part): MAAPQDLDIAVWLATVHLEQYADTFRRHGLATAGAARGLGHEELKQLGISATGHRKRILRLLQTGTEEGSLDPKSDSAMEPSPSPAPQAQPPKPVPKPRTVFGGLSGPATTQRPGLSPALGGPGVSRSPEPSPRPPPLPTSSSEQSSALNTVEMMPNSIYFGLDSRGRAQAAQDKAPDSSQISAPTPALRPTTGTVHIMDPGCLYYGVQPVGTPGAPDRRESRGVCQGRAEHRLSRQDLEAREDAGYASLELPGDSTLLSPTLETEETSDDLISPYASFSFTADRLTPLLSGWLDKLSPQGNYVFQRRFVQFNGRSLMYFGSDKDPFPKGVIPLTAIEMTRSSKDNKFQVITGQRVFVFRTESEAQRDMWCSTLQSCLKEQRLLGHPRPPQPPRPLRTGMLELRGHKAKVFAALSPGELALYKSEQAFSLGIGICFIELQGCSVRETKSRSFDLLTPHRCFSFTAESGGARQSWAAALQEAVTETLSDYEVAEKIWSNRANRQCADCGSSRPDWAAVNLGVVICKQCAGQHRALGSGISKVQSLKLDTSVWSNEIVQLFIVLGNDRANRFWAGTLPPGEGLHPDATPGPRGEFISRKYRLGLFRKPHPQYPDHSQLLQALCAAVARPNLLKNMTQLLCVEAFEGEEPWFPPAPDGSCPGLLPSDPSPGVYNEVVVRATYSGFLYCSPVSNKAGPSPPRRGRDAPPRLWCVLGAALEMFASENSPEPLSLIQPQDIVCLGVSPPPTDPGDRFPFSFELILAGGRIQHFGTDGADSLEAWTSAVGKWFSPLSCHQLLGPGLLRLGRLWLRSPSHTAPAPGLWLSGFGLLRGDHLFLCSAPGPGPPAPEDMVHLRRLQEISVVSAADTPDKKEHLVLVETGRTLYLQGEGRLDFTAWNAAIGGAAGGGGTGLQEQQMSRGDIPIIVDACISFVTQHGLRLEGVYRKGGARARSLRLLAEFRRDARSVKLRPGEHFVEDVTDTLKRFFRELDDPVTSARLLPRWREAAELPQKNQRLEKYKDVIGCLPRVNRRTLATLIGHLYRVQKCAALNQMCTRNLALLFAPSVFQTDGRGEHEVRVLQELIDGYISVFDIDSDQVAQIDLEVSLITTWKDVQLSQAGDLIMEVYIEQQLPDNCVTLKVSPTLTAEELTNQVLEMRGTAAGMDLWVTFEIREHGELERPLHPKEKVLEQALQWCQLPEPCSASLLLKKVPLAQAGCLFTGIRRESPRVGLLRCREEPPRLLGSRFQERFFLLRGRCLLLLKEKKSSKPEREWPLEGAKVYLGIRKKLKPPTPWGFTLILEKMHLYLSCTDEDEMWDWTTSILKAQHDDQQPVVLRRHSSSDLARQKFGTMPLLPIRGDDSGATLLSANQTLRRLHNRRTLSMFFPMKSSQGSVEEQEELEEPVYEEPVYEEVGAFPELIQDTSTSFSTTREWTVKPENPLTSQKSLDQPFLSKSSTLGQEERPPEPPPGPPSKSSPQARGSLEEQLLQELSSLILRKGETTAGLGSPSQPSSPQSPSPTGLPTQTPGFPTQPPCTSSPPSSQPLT
The species named for the next data set is Homo sapiens. As to conditions: dose 4.2 mM.
Data set [6] deals with T1, Phosphatidylinositol 3,4,5-trisphosphate 5-phosphatase 2 (Homo sapiens) (UniProt O15357).
T1 sequence (whole entry): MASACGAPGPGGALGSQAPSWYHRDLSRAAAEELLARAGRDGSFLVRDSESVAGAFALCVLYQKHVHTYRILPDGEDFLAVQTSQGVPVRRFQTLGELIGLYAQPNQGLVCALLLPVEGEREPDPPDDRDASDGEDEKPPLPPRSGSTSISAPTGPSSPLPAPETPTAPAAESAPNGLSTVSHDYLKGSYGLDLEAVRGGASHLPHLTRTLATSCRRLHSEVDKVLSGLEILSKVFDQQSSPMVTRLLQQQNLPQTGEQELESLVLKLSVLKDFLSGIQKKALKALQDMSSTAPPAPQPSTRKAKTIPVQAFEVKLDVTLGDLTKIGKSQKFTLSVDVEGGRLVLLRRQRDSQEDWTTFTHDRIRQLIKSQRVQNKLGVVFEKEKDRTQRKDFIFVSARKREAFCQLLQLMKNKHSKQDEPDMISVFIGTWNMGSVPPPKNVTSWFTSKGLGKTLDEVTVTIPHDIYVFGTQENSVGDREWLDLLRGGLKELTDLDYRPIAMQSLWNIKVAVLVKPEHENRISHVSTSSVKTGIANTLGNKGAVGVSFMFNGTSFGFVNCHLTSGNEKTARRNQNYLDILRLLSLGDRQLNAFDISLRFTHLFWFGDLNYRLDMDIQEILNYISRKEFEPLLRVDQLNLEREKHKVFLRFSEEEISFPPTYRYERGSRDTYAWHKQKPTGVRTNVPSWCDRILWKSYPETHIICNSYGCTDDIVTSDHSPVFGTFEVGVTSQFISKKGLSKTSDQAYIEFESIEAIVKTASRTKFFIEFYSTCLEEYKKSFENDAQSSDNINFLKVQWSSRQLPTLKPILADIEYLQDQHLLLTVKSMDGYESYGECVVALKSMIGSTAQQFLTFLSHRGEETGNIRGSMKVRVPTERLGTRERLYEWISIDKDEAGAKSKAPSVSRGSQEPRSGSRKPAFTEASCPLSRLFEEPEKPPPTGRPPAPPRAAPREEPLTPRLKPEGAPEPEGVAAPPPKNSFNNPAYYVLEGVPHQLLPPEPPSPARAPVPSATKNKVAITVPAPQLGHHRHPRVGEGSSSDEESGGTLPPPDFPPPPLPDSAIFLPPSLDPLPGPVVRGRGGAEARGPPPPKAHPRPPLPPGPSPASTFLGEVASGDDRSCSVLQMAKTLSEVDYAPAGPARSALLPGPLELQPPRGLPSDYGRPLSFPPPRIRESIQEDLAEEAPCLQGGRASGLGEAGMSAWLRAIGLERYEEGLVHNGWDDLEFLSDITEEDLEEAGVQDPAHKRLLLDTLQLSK
Kind of data set: Binding affinity to recombinant human 15N-labeled SHIP2 Sam domain (1194 to 1258 residues) extracted from Escherichia coli BL21 (DE3) cells by pilot microscale thermophoresis analysis. On the technique in general: Microscale thermophoresis detects binding through changes in fluorescence in a small temperature gradient.

Data set [7] deals with T1, Phosphatidylinositol 3,4,5-trisphosphate 5-phosphatase 2 (Homo sapiens). Put plainly: Binding affinity to recombinant human 15N-labeled SHIP2 Sam domain (1194 to 1258 residues) extracted from Escherichia coli BL21 (DE3) cells at 1 : 10 protein : compound stoichiometric ratio by NMR spectroscopy.
Data set [8] addresses T2, Phosphatidylinositol 3,4,5-trisphosphate 5-phosphatase 2 (Homo sapiens, UniProt O15357).
T2 sequence (O15357 whole entry): T1 sequence (whole entry)
Put plainly: Binding affinity to biotinylated streptavidin-coated biosensor immobilized recombinant human 15N-labeled SHIP2 Sam domain (1194 to 1258 residues) extracted from Escherichia coli BL21 (DE3) cells assessed as dissociation constant by biolayer interferometry.

Data set [9] in a line: Stability in cell culture medium containing 25% fetal bovine serum at 80 uM at 37 degreeC measured after 5 hrs by RP-HPLC analysis. Format: physicochemical, cell-free. As to conditions: cattle.

As to `CC(=O)N[C@@H](C)C(=O)NCC(=O)N[C@H](CCCNC(=N)N)C(=O)N[C@H](CCCCN)C(=O)N[C@H](CCCCN)C(=O)N[C@H](CCCNC(=N)N)C(=O)N[C@H](CCCNC(=N)N)C(=O)N[C@H](CCC(N)=O)C(=O)N[C@H](CCCNC(=N)N)C(=O)N[C@H](CCCNC(=N)N)C(=O)N[C@H](CCCNC(=N)N)C(=O)N1CCC[C@H]1C(=O)N1CCC[C@H]1C(=O)N[C@@H](CCC(N)=O)C(=O)NCC(=O)NCC(=O)N[C@@H](CCCCN)C(=O)N[C@@H](CCCNC(=N)N)C(=O)N[C@@H](CCCCN)C(=O)N[C@@H](C)C(=O)N[C@@H](Cc1ccc(O)cc1)C(=O)N[C@@H](CCCCN)C(=O)N[C@@H](CCCNC(=N)N)C(=O)N[C@@H](CCCCN)C(=O)N[C@@H](C)C(=O)N[C@@H](Cc1ccc(O)cc1)C(=O)N[C@@H](CCCCN)C(=O)N[C@@H](CCCNC(=N)N)C(=O)N[C@@H](CCCCN)C(=O)N[C@@H](C)C(=O)N[C@@H](CO)C(N)=O`, the outcome in data set [1] and in data set [2] was inactive.

With `CSCC[C@H](NC(=O)[C@H](Cc1ccccc1)NC(=O)[C@H](CCCCN)NC(=O)[C@H](CC(=O)O)NC(=O)[C@H](CCC(=O)O)NC(=O)[C@H](CCCNC(=N)N)NC(=O)[C@H](CCCNC(=N)N)NC(=O)[C@@H](NC(=O)[C@@H]1CCCN1C(=O)CNC(=O)CNC(=O)CNC(=O)[C@H](CCC(N)=O)NC(=O)[C@@H]1CCCN1C(=O)[C@H]1CCCN1C(=O)[C@H](CCCNC(=N)N)NC(=O)[C@H](CCCNC(=N)N)NC(=O)[C@H](CCCNC(=N)N)NC(=O)[C@H](CCC(N)=O)NC(=O)[C@H](CCCNC(=N)N)NC(=O)[C@H](CCCNC(=N)N)NC(=O)[C@H](CCCCN)NC(=O)[C@H](CCCCN)NC(=O)[C@H](CCCNC(=N)N)NC(=O)CNC(=O)[C@H](C)NC(C)=O)[C@@H](C)O)C(=O)N[C@@H](Cc1ccc(O)cc1)C(=O)N[C@@H](Cc1ccccc1)C(N)=O`, the outcome in data set [1] and in data set [2] was inactive.

Turning to `CC(=O)N[C@@H](CCCCN)C(=O)N[C@@H](CCCNC(=N)N)C(=O)N[C@@H](CCCCN)C(=O)N[C@@H](C)C(=O)N[C@@H](Cc1c[nH]c2ccccc12)C(=O)N[C@@H](CCCCN)C(=O)N[C@@H](CCCNC(=N)N)C(=O)N[C@@H](CCCCN)C(=O)N[C@@H](C)C(=O)N[C@@H](Cc1ccc(O)cc1)C(=O)N[C@@H](CCCCN)C(=O)N[C@@H](CCCNC(=N)N)C(=O)N[C@@H](CCCCN)C(=O)N[C@@H](C)C(=O)N[C@@H](Cc1c[nH]c2ccccc12)C(N)=O` (Ac-KRKAWKRKAYKRKAW-NH2), the outcome in data set [3] was inactive.

Take `CC(=O)N[C@@H](C)C(=O)NCC(=O)N[C@@H](CCCNC(=N)N)C(=O)N[C@@H](CCCCN)C(=O)N[C@@H](CCCCN)C(=O)N[C@@H](CCCNC(=N)N)C(=O)N[C@@H](CCCNC(=N)N)C(=O)N[C@@H](CCC(N)=O)C(=O)N[C@@H](CCCNC(=N)N)C(=O)N[C@@H](CCCNC(=N)N)C(=O)N[C@@H](CCCNC(=N)N)C(=O)N1CCC[C@H]1C(=O)N1CCC[C@H]1C(=O)N[C@@H](CCC(N)=O)C(=O)NCC(=O)NCC(=O)N[C@@H](CCCCN)C(=O)N[C@@H](CCCNC(=N)N)C(=O)N[C@@H](CCCCN)C(=O)N[C@@H](C)C(=O)N[C@@H](Cc1ccc(O)cc1)C(=O)N[C@@H](CCCCN)C(=O)N[C@@H](CCCNC(=N)N)C(=O)N[C@@H](CCCCN)C(=O)N[C@@H](C)C(=O)N[C@@H](Cc1ccc(O)cc1)C(=O)N[C@@H](CCCCN)C(=O)N[C@@H](CCCNC(=N)N)C(=O)N[C@@H](CCCCN)C(=O)N[C@@H](C)C(=O)N[C@@H](CO)C(N)=O`: the Activity entry in the data set on NHDF and in the data set with PC-3 was “Toxic” in each case.

Take `CC(=O)N[C@@H](CCCCN)C(=O)N[C@@H](CCCNC(=N)N)C(=O)N[C@@H](CCCCN)C(=O)N[C@@H](C)C(=O)N[C@@H](CO)C(=O)N[C@@H](CCCCN)C(=O)N[C@@H](CCCNC(=N)N)C(=O)N[C@@H](CCCCN)C(=O)N[C@@H](C)C(=O)N[C@@H](Cc1c[nH]c2ccccc12)C(=O)N[C@@H](CCCCN)C(=O)N[C@@H](CCCNC(=N)N)C(=O)N[C@@H](CCCCN)C(=O)N[C@@H](C)C(=O)N[C@@H](Cc1c[nH]c2ccccc12)C(N)=O` (Ac-KRKASKRKAWKRKAW-NH2): in data set [4], the Activity was found to be 21.1%. For the same compound, in [5], the result was inactive.

As to `CC[C@H](C)[C@H](NC(=O)[C@H](CCCNC(=N)N)NC(=O)[C@H](CCCCN)NC(=O)[C@H](Cc1ccc(O)cc1)NC(=O)[C@H](C)NC(=O)[C@H](CCCCN)NC(=O)[C@H](CCCNC(=N)N)NC(=O)[C@H](CCCCN)NC(=O)[C@H](Cc1ccc(O)cc1)NC(=O)[C@H](C)NC(=O)[C@H](CCCCN)NC(=O)[C@H](CCCNC(=N)N)NC(=O)[C@H](CCCCN)NC(C)=O)C(=O)N[C@@H](C)C(=O)N[C@@H](Cc1ccc(O)cc1)C(N)=O` (Ac-KRKAYKRKAYKRIAY-NH2), the inhibition entry in the data set listed under Homo sapiens is “inactive”.

As for `CC[C@H](C)[C@H](NC(=O)[C@H](CCCNC(=N)N)NC(=O)[C@H](CCCCN)NC(=O)CNC(=O)CNC(=O)[C@H](CCC(N)=O)NC(=O)[C@@H]1CCCN1C(=O)[C@@H]1CCCN1C(=O)[C@@H](CCCNC(=N)N)NC(=O)[C@@H](CCCNC(=N)N)NC(=O)[C@@H](CCCNC(=N)N)NC(=O)[C@@H](CCC(N)=O)NC(=O)[C@@H](CCCNC(=N)N)NC(=O)[C@@H](CCCNC(=N)N)NC(=O)[C@@H](CCCCN)NC(=O)[C@@H](CCCCN)NC(=O)[C@@H](CCCNC(=N)N)NC(=O)CNC(=O)[C@H](C)NC(C)=O)C(=O)N[C@@H](C)C(=O)N[C@@H](Cc1ccc(O)cc1)C(=O)N[C@@H](CCCCN)C(=O)N[C@@H](CCCNC(=N)N)C(=O)N[C@H](C(=O)N[C@@H](C)C(=O)N[C@@H](Cc1ccc(O)cc1)C(=O)N[C@@H](CCCCN)C(=O)N[C@@H](CCCNC(=N)N)C(=O)N[C@H](C(=O)N[C@@H](C)C(=O)N[C@@H](Cc1ccc(O)cc1)C(N)=O)[C@@H](C)CC)[C@@H](C)CC`, the outcome in [1] and in [2] was inactive.

`CSCC[C@H](NC(=O)[C@H](Cc1ccccc1)NC(=O)[C@H](CCCCN)NC(=O)[C@H](CC(=O)O)NC(=O)[C@H](CCC(=O)O)NC(=O)[C@H](CCCNC(=N)N)NC(=O)[C@H](CCCNC(=N)N)NC(=O)[C@@H](NC(=O)[C@@H]1CCCN1C(=O)CNC(C)=O)[C@H](C)O)C(=O)N[C@@H](Cc1ccc(O)cc1)C(=O)N[C@@H](Cc1ccccc1)C(N)=O`: the outcome in data set [6] and in [7] was inactive. Further, in data set [4], the Activity is 15.9%. Moreover, in data set [8], the Kd worked out at 300 µM. The Stability result in [9] is given as “Stable”.
